Experimental data: publication PMC5218480 (PLoS ONE, 2017)

System: MV-4-11 cells
Test: Gene expression microarray analysis (Affymetrix PrimeView) and GSEA
Assay type: cell-based, human
Set-up: RFU PODN (11730768_x_at) / Fold change /veh PODN (11730768_x_at) / RFU LINC00158 (11744669_a_at) / Fold change /veh LINC00158 (11744669_a_at) / RFU DUSP10 (11751237_a_at) / Fold change /veh DUSP10 (11751237_a_at) / RFU ID3 (11757404_x_at) / Fold change /veh ID3 (11757404_x_at) / RFU PLEKHG5 (11737974_s_at) / Fold change /veh PLEKHG5 (11737974_s_at) / RFU LRRC4B (11730491_at) / Fold change /veh LRRC4B (11730491_at) / RFU GIMAP4 (11747438_a_at) / Fold change /veh GIMAP4 (11747438_a_at) / RFU KRT8 (11758183_x_at) / Fold change /veh KRT8 (11758183_x_at) / RFU CNN1 (11734310_a_at) / Fold change /veh CNN1 (11734310_a_at) / RFU VPS37D (11726825_at) / Fold change /veh VPS37D (11726825_at) / RFU C10orf10 (11716522_x_at) / Fold change /veh C10orf10 (11716522_x_at) / RFU KIR2DL2 /// KIR2DL4 /// KIR2DL5A /// KIR2DL5B /// KIR2DS1 /// KIR2DS2 /// KIR2DS3 /// KIR2DS4 /// KIR3DL3 /// KIR3DL3 /// KIR3DS1 (11738374_at) / Fold change /veh KIR2DL2 /// KIR2DL4 /// KIR2DL5A /// KIR2DL5B /// KIR2DS1 /// KIR2DS2 /// KIR2DS3 /// KIR2DS4 /// KIR3DL3 /// KIR3DL3 /// KIR3DS1 (11738374_at) / RFU C1QL1 (11718748_at) / Fold change /veh C1QL1 (11718748_at) / RFU TMPRSS4 (11747572_a_at) / Fold change /veh TMPRSS4 (11747572_a_at) / RFU HAMP (11756126_x_at) / Fold change /veh HAMP (11756126_x_at) / RFU RNFT2 (11725882_a_at) / Fold change /veh RNFT2 (11725882_a_at) / RFU NR4A2 (11747474_a_at) / Fold change /veh NR4A2 (11747474_a_at) / RFU ABCC12 (11746883_a_at) / Fold change /veh ABCC12 (11746883_a_at) / RFU TMEM136 (11760407_x_at) / Fold change /veh TMEM136 (11760407_x_at) / RFU CLDN22 /// WWC2 (11732394_at) / Fold change /veh CLDN22 /// WWC2 (11732394_at) / RFU HLA-DPB1 (11760878_x_at) / Fold change /veh HLA-DPB1 (11760878_x_at) / RFU SPINT1 (11716480_a_at) / Fold change /veh SPINT1 (11716480_a_at) / RFU GAP43 (11754022_s_at) / Fold change /veh GAP43 (11754022_s_at) / RFU A4GNT (11735810_at) / Fold change /veh A4GNT (11735810_at) / RFU PRB3 (11715151_x_at) / Fold change /veh PRB3 (11715151_x_at) / RFU TUBB4B (11761932_at) / Fold change /veh TUBB4B (11761932_at) / RFU CAPN14 (11732068_a_at) / Fold change /veh CAPN14 (11732068_a_at) / RFU TMCC2 (11721928_a_at) / Fold change /veh TMCC2 (11721928_a_at) / RFU IRGQ (11745062_a_at) / Fold change /veh IRGQ (11745062_a_at) / RFU FAM174B (11720279_a_at) / Fold change /veh FAM174B (11720279_a_at) / RFU TMPRSS4 (11748680_a_at) / Fold change /veh TMPRSS4 (11748680_a_at) / RFU FAM212B (11763350_a_at) / Fold change /veh FAM212B (11763350_a_at) / RFU PLEKHG5 (11743358_a_at) / Fold change /veh PLEKHG5 (11743358_a_at) / RFU ZSCAN30 (11745921_a_at) / Fold change /veh ZSCAN30 (11745921_a_at) / RFU CMKLR1 (11741424_a_at) / Fold change /veh CMKLR1 (11741424_a_at) / RFU LOC101060620 /// MAPK8IP1 (11723275_at) / Fold change /veh LOC101060620 /// MAPK8IP1 (11723275_at) / RFU SPTSSB (11747773_x_at) / Fold change /veh SPTSSB (11747773_x_at) / RFU PRSS12 (11739890_at) / Fold change /veh PRSS12 (11739890_at) / RFU BIN1 (11741810_x_at) / Fold change /veh BIN1 (11741810_x_at) / RFU WNT11 (11732464_a_at) / Fold change /veh WNT11 (11732464_a_at) / RFU C10orf10 (11716521_a_at) / Fold change /veh C10orf10 (11716521_a_at) / RFU C5orf56 (11738089_at) / Fold change /veh C5orf56 (11738089_at) / RFU CYB561 (11721691_x_at) / Fold change /veh CYB561 (11721691_x_at) / RFU ANKRD19P (11752326_a_at) / Fold change /veh ANKRD19P (11752326_a_at) / RFU OR2T12 /// OR2T33 /// OR2T8 (11738714_s_at) / Fold change /veh OR2T12 /// OR2T33 /// OR2T8 (11738714_s_at) / RFU VCAN (11748164_a_at) / Fold change /veh VCAN (11748164_a_at) / RFU JSRP1 (11732532_at) / Fold change /veh JSRP1 (11732532_at) / RFU KRTAP10-11 (11738290_x_at) / Fold change /veh KRTAP10-11 (11738290_x_at) / RFU MYO3A (11730013_a_at) / Fold change /veh MYO3A (11730013_a_at) / RFU EBF3 (11725865_a_at) / Fold change /veh EBF3 (11725865_a_at) / RFU CAMK2N1 (11719241_x_at) / Fold change /veh CAMK2N1 (11719241_x_at) / RFU C5orf56 (11738088_a_at) / Fold change /veh C5orf56 (11738088_a_at) / RFU OLFML3 (11715873_a_at) / Fold change /veh OLFML3 (11715873_a_at) / RFU LOC100653217 /// NTM (11731650_a_at) / Fold change /veh LOC100653217 /// NTM (11731650_a_at) / RFU MAPK11 (11762145_a_at) / Fold change /veh MAPK11 (11762145_a_at) / RFU FIZ1 (11724087_x_at) / Fold change /veh FIZ1 (11724087_x_at) / RFU OASL (11726364_x_at) / Fold change /veh OASL (11726364_x_at) / RFU SOX15 (11748057_x_at) / Fold change /veh SOX15 (11748057_x_at) / RFU CD79A (11719716_a_at) / Fold change /veh CD79A (11719716_a_at) / RFU HIST1H1D (11736915_at) / Fold change /veh HIST1H1D (11736915_at) / RFU CASKIN2 (11723855_a_at) / Fold change /veh CASKIN2 (11723855_a_at) / RFU LOC730098 (11760151_x_at) / Fold change /veh LOC730098 (11760151_x_at) / RFU OR4N2 (11742367_at) / Fold change /veh OR4N2 (11742367_at) / RFU PRRT2 (11749266_a_at) / Fold change /veh PRRT2 (11749266_a_at) / RFU SNX32 (11753110_a_at) / Fold change /veh SNX32 (11753110_a_at) / RFU CDHR5 (11726645_a_at) / Fold change /veh CDHR5 (11726645_a_at) / RFU RCAN1 (11760418_a_at) / Fold change /veh RCAN1 (11760418_a_at) / RFU FAM167A (11723789_a_at) / Fold change /veh FAM167A (11723789_a_at) / RFU FAM26E (11764081_at) / Fold change /veh FAM26E (11764081_at) / RFU ISYNA1 (11749810_s_at) / Fold change /veh ISYNA1 (11749810_s_at) / RFU ACY1 (11761880_at) / Fold change /veh ACY1 (11761880_at) / RFU 11764098_at / Fold change /veh 11764098_at / RFU SAMD14 (11745864_x_at) / Fold change /veh SAMD14 (11745864_x_at) / RFU NPB (11741838_a_at) / Fold change /veh NPB (11741838_a_at) / RFU TMPRSS6 (11731388_a_at) / Fold change /veh TMPRSS6 (11731388_a_at) / RFU KRTAP10-2 (11738614_at) / Fold change /veh KRTAP10-2 (11738614_at) / RFU ARHGAP8 /// PRR5-ARHGAP8 (11727945_x_at) / Fold change /veh ARHGAP8 /// PRR5-ARHGAP8 (11727945_x_at) / RFU KRTAP5-7 /// NADSYN1 (11734609_at) / Fold change /veh KRTAP5-7 /// NADSYN1 (11734609_at) / RFU RASL12 (11751679_a_at) / Fold change /veh RASL12 (11751679_a_at) / RFU CDKN2B (11736163_a_at) / Fold change /veh CDKN2B (11736163_a_at) / RFU PRF1 (11729649_at) / Fold change /veh PRF1 (11729649_at) / RFU, ZNF638 /// ZNF638-IT1 / Fold change vs veh, ZNF638 /// ZNF638-IT1 / RFU, PANK3 / Fold change vs veh, PANK3 / RFU, SH3YL1 / Fold change vs veh, SH3YL1 / RFU, ZEB2 / Fold change vs veh, ZEB2 / RFU, NRIP1 / Fold change vs veh, NRIP1 / RFU, PTTG1IP / Fold change vs veh, PTTG1IP / RFU, CAPN2 / Fold change vs veh, CAPN2 / RFU, MED14 / Fold change vs veh, MED14 / RFU, SNORA58 / Fold change vs veh, SNORA58 / RFU, C1orf63 / Fold change vs veh, C1orf63 / RFU, LRRFIP1 / Fold change vs veh, LRRFIP1 / RFU, NDUFAF7 / Fold change vs veh, NDUFAF7 / RFU, SLC12A2 / Fold change vs veh, SLC12A2 / RFU, IBTK / Fold change vs veh, IBTK / RFU, ESF1 / Fold change vs veh, ESF1 / Fold change vs veh, TMEM50B / RFU, TAOK1 / Fold change vs veh, TAOK1 / RFU, ACBD3 / Fold change vs veh, ACBD3 / RFU, TMA16 / Fold change vs veh, TMA16 / RFU, RWDD3 / Fold change vs veh, RWDD3 / RFU, BCAT1 / Fold change vs veh, BCAT1 / RFU, EDEM3 / Fold change vs veh, EDEM3 / RFU, TMEM33 / Fold change vs veh, TMEM33 / RFU, WDR75 / Fold change vs veh, WDR75 / RFU, AHCTF1 / Fold change vs veh, AHCTF1 / RFU, TFRC / Fold change vs veh, TFRC / RFU, ZDHHC17 / Fold change vs veh, ZDHHC17 / RFU, NOM1 / Fold change vs veh, NOM1 / RFU, ARL8B / Fold change vs veh, ARL8B / RFU, ZBTB11 / Fold change vs veh, ZBTB11 / RFU, TAMM41 / Fold change vs veh, TAMM41 / RFU, KIAA1704 /// LOC100996395 / Fold change vs veh, KIAA1704 /// LOC100996395 / RFU, ING1 / Fold change vs veh, ING1 / RFU, TRMT61B / Fold change vs veh, TRMT61B / RFU, FUBP3 / Fold change vs veh, FUBP3 / RFU, TP53 / Fold change vs veh, TP53 / RFU, TNKS2 / Fold change vs veh, TNKS2 / RFU, ZFP14 / Fold change vs veh, ZFP14 / RFU, ACTR2 / Fold change vs veh, ACTR2 / RFU, PPP3R1 / Fold change vs veh, PPP3R1 / RFU, PIK3R1 / Fold change vs veh, PIK3R1 / RFU, HNRNPA1 / Fold change vs veh, HNRNPA1 / RFU, RNF170 / Fold change vs veh, RNF170 / RFU, ZNF28 / Fold change vs veh, ZNF28 / RFU, RNGTT / Fold change vs veh, RNGTT / RFU, OGT / Fold change vs veh, OGT / RFU, BRD1 / Fold change vs veh, BRD1 / RFU, MARS / Fold change vs veh, MARS / RFU, ZNF655 / Fold change vs veh, ZNF655 / RFU, FAHD1 / Fold change vs veh, FAHD1 / RFU, BDP1 / Fold change vs veh, BDP1 / RFU, LRRCC1 / Fold change vs veh, LRRCC1 / RFU, ARID1A / Fold change vs veh, ARID1A / RFU, ZNF146 / Fold change vs veh, ZNF146 / RFU, ZNF330 / Fold change vs veh, ZNF330 / RFU, GPN3 / Fold change vs veh, GPN3 / RFU, C9orf123 / Fold change vs veh, C9orf123 / RFU, N4BP2L2 / Fold change vs veh, N4BP2L2 / RFU, ARFIP1 / Fold change vs veh, ARFIP1 / RFU, FAM179B / Fold change vs veh, FAM179B / RFU, BCL10 / Fold change vs veh, BCL10 / RFU, UHRF1BP1L / Fold change vs veh, UHRF1BP1L / RFU, BET1 / Fold change vs veh, BET1 / RFU, CNOT2 / Fold change vs veh, CNOT2 / RFU, ZNF268 / Fold change vs veh, ZNF268 / Fold change vs veh, ZNF507 / RFU, DGCR2 / Fold change vs veh, DGCR2 / RFU, WDSUB1 / Fold change vs veh, WDSUB1 / Fold change vs veh, HSP90B1 /// MIR3652 / RFU, ADSS / Fold change vs veh, ADSS / RFU, GK / Fold change vs veh, GK / RFU, ZNF148 / Fold change vs veh, ZNF148 / RFU, TAF9 / Fold change vs veh, TAF9 / RFU, SLC1A5 / Fold change vs veh, SLC1A5 / RFU, SLMO2 / Fold change vs veh, SLMO2 / RFU, ABCC4 / Fold change vs veh, ABCC4 / RFU, LOC101060439 /// RAP1B / Fold change vs veh, LOC101060439 /// RAP1B / RFU, RFX7 / Fold change vs veh, RFX7 / RFU, GTPBP10 / Fold change vs veh, GTPBP10 / RFU, CNEP1R1 / Fold change vs veh, CNEP1R1 / RFU, BIVM-ERCC5 /// ERCC5 / Fold change vs veh, BIVM-ERCC5 /// ERCC5 / RFU, ILF3 / Fold change vs veh, ILF3 / RFU 11762660_at / Fold change /veh 11762660_at / RFU VCAN (11757783_s_at) / Fold change /veh VCAN (11757783_s_at) / RFU DDX43 (11728927_at) / Fold change /veh DDX43 (11728927_at) / RFU KRT8 (11758188_x_at) / Fold change /veh KRT8 (11758188_x_at) / RFU NKD1 (11759106_at) / Fold change /veh NKD1 (11759106_at) / RFU SRD5A1 (11742802_a_at) / Fold change /veh SRD5A1 (11742802_a_at) / RFU TPSAB1 /// TPSB2 (11721975_s_at) / Fold change /veh TPSAB1 /// TPSB2 (11721975_s_at) / RFU GSTM3 (11746129_a_at) / Fold change /veh GSTM3 (11746129_a_at) / RFU IL23R (11737362_x_at) / Fold change /veh IL23R (11737362_x_at) / RFU TMEM51 (11727254_a_at) / Fold change /veh TMEM51 (11727254_a_at) / RFU PIWIL2 (11732686_x_at) / Fold change /veh PIWIL2 (11732686_x_at) / RFU ORM1 (11744905_x_at) / Fold change /veh ORM1 (11744905_x_at) / RFU CCDC152 (11743942_at) / Fold change /veh CCDC152 (11743942_at) / RFU ECM1 (11717891_a_at) / Fold change /veh ECM1 (11717891_a_at) / RFU IL23R (11748794_a_at) / Fold change /veh IL23R (11748794_a_at) / RFU TNFAIP8L3 (11732012_x_at) / Fold change /veh TNFAIP8L3 (11732012_x_at) / RFU MBOAT4 (11741988_at) / Fold change /veh MBOAT4 (11741988_at) / RFU 11764193_at / Fold change /veh 11764193_at / RFU TMEM53 (11763286_at) / Fold change /veh TMEM53 (11763286_at) / RFU MAGEB2 (11727129_at) / Fold change /veh MAGEB2 (11727129_at) / RFU TMEM200A (11744735_a_at) / Fold change /veh TMEM200A (11744735_a_at) / RFU CCDC152 (11751479_a_at) / Fold change /veh CCDC152 (11751479_a_at) / RFU FAM211A (11726209_a_at) / Fold change /veh FAM211A (11726209_a_at) / RFU RGS16 (11746705_a_at) / Fold change /veh RGS16 (11746705_a_at) / RFU VCAN (11755009_s_at) / Fold change /veh VCAN (11755009_s_at) / RFU RHOB (11743442_s_at) / Fold change /veh RHOB (11743442_s_at) / RFU RGS16 (11720943_a_at) / Fold change /veh RGS16 (11720943_a_at) / RFU RGS16 (11720944_at) / Fold change /veh RGS16 (11720944_at) / RFU, VPS4B / Fold change vs veh, VPS4B / RFU, CREB1 / Fold change vs veh, CREB1 / RFU, DNAJC13 / Fold change vs veh, DNAJC13 / RFU, GNAQ / Fold change vs veh, GNAQ / RFU, CDK5R1 / Fold change vs veh, CDK5R1 / RFU, ZRANB3 / Fold change vs veh, ZRANB3 / RFU, CUL4A / Fold change vs veh, CUL4A / RFU, CCNY / Fold change vs veh, CCNY / RFU, UFL1 / Fold change vs veh, UFL1 / RFU, COG3 / Fold change vs veh, COG3 / RFU, DIAPH2 / Fold change vs veh, DIAPH2 / RFU, SKA2 / Fold change vs veh, SKA2 / RFU, AFF3 / Fold change vs veh, AFF3 / RFU, LMF1 / Fold change vs veh, LMF1 / RFU, IPO11 / Fold change vs veh, IPO11 / RFU, DFFB / Fold change vs veh, DFFB / RFU, FOXP1 / Fold change vs veh, FOXP1 / RFU, CARD8 / Fold change vs veh, CARD8 / RFU, STRN3 / Fold change vs veh, STRN3 / RFU, ADK / Fold change vs veh, ADK / RFU, RASSF2 / Fold change vs veh, RASSF2 / RFU, WIPF1 / Fold change vs veh, WIPF1 / RFU, LARP1B / Fold change vs veh, LARP1B / RFU, RASA1 / Fold change vs veh, RASA1 / RFU, RB1 / Fold change vs veh, RB1 / RFU, PPFIA1 / Fold change vs veh, PPFIA1 / RFU, MAT2A / Fold change vs veh, MAT2A / RFU, CCT5 / Fold change vs veh, CCT5 / RFU, WDR92 / Fold change vs veh, WDR92 / RFU, CUX1 / Fold change vs veh, CUX1 / RFU, TTC7A / Fold change vs veh, TTC7A / RFU, TMEM135 / Fold change vs veh, TMEM135 / RFU, DEPTOR / Fold change vs veh, DEPTOR / RFU, CPM / Fold change vs veh, CPM / RFU, DNAJB6 / Fold change vs veh, DNAJB6 / RFU, CACNA2D3 / Fold change vs veh, CACNA2D3 / RFU, DTX4 / Fold change vs veh, DTX4 / RFU, TFCP2 / Fold change vs veh, TFCP2 / RFU, GMCL1 /// GMCL1P1 / Fold change vs veh, GMCL1 /// GMCL1P1 / RFU, AEBP2 / Fold change vs veh, AEBP2 / RFU, SNHG1 /// SNORD22 /// SNORD25 /// SNORD26 /// SNORD27 /// SNORD28 /// SNORD29 /// SNORD31 / Fold change vs veh, SNHG1 /// SNORD22 /// SNORD25 /// SNORD26 /// SNORD27 /// SNORD28 /// SNORD29 /// SNORD31 / Fold change (Aza/veh), C12orf56 (ProbeSet 11735607_a_at) / Fold change (ACY-1035/veh), C12orf56 (ProbeSet 11735607_a_at) / Fold change (Aza/veh), FGFR1OP (ProbeSet 11751329_s_at) / Fold change (ACY-1035/veh), FGFR1OP (ProbeSet 11751329_s_at) / Fold change (Aza/veh), VPS36 (ProbeSet 11739960_a_at) / Fold change (ACY-1035/veh), VPS36 (ProbeSet 11739960_a_at) / RFU SYPL1 (11715823_x_at) / Fold change /veh SYPL1 (11715823_x_at) / RFU IGFBP7 (11715501_s_at) / Fold change /veh IGFBP7 (11715501_s_at) / RFU REEP3 (11722064_at) / Fold change /veh REEP3 (11722064_at) / RFU IGLL1 (11728026_x_at) / Fold change /veh IGLL1 (11728026_x_at): dose or concentration left out as unconfirmed
Conditions: ProbeSet 11721559_s_at; LIST B

Nc1ccc(-c2cccs2)cc1NC(=O)c1ccc2c(c1)cc(C1CC1)n2CCN1CCOCC1 [ACY-1035]
RFU, ZNF638 /// ZNF638-IT1: 322.16 RFU
